Values quoted from earlier work as cited in US20240158750A1, “STROMA-FREE NK CELL DIFFERENTIATION FROM HUMAN PLURIPOTENT STEM CELLS” (The Children's Medical Center Corporation, priority 2021, published 2024).

Tests used:
[1] = target: T1, PKMT G9a (Homo sapiens, UniProt Q96KQ7); details: based on Morrison Ki; cited from earlier work
T1 sequence (Q96KQ7 1-1210): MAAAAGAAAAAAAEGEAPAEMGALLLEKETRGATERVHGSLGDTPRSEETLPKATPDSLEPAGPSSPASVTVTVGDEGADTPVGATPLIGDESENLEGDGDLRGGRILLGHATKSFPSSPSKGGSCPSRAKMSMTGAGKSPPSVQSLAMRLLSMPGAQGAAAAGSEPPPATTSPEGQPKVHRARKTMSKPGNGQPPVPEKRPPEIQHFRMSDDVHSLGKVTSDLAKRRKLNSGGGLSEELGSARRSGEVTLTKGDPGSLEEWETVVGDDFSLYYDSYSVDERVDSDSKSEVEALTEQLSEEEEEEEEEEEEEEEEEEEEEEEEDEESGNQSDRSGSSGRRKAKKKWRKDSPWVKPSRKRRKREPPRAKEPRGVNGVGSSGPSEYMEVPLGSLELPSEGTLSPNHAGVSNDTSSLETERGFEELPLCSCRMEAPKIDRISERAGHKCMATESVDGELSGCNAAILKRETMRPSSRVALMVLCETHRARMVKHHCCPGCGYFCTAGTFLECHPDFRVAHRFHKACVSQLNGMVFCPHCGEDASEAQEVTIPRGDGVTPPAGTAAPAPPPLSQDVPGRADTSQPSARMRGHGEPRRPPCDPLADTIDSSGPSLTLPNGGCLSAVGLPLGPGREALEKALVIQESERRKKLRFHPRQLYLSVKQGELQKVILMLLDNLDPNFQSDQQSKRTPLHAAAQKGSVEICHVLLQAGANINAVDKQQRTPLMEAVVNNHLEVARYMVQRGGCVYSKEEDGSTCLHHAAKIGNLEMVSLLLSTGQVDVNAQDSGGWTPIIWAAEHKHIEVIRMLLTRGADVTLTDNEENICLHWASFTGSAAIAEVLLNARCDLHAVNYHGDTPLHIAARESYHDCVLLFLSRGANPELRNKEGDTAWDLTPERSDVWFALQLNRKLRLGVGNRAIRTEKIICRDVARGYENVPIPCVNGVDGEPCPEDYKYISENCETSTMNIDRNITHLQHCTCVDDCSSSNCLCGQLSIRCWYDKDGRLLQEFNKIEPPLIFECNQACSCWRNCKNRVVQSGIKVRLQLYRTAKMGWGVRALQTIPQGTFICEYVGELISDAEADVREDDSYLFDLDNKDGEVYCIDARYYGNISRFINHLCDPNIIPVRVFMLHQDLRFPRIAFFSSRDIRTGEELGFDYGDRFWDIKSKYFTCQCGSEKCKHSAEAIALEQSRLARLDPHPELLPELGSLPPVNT

[2] = target: SET8/PreSET7 (Homo sapiens, UniProt Q9NQR1); details: SET8/PreSET7, inactive, ECSD enzymatic assay; cited from earlier work
[3] = target: T2, SET7/9 (Homo sapiens, UniProt Q8WTS6); details: SET7/9, inactive, ECSD enzymatic assay; cited from earlier work
T2 sequence (Q8WTS6 1-366): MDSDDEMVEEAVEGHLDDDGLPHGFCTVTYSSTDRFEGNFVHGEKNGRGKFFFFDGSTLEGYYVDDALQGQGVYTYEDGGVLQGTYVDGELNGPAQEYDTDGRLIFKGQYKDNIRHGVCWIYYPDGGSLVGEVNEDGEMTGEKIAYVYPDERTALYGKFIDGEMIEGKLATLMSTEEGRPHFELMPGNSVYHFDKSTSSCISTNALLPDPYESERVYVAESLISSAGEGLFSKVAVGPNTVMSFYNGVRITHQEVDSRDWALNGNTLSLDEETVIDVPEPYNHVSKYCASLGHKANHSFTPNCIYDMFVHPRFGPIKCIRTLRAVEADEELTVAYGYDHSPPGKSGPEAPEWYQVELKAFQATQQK

[4] = target: PRMT3 (Homo sapiens, UniProt O60678); details: PRMT3, inactive, ECSD enzymatic assay; cited from earlier work
[5] = target: T3, JMJD2E (Homo sapiens, UniProt B2RXH2); details: ECSD enzymatic assay, cited from earlier work
T3 sequence (B2RXH2 1-506): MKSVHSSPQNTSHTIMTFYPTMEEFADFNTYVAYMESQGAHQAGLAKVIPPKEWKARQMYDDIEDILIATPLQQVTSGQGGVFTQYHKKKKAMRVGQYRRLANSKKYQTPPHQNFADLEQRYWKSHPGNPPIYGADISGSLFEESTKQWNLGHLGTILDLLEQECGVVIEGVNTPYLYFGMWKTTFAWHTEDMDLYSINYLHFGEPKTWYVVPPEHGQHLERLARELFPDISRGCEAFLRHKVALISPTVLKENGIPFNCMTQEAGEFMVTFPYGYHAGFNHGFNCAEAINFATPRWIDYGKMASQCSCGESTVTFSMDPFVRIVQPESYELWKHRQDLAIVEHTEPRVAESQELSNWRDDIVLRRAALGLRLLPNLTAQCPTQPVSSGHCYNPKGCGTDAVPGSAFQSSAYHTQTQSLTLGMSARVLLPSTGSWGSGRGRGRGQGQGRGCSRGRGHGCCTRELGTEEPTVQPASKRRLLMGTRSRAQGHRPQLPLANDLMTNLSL

[6] = target: T4, G9a/GLP (Homo sapiens, UniProt Q96KQ7); details: SAM-competitive; cited from earlier work
T4 sequence (Q96KQ7 1-1210): T1 sequence (Q96KQ7 1-1210)

[7] = target: T5, Lys20-specific PRSET7 (Homo sapiens, UniProt Q9NQR1); details: cited from earlier work
T5 sequence (Q9NQR1 1-393): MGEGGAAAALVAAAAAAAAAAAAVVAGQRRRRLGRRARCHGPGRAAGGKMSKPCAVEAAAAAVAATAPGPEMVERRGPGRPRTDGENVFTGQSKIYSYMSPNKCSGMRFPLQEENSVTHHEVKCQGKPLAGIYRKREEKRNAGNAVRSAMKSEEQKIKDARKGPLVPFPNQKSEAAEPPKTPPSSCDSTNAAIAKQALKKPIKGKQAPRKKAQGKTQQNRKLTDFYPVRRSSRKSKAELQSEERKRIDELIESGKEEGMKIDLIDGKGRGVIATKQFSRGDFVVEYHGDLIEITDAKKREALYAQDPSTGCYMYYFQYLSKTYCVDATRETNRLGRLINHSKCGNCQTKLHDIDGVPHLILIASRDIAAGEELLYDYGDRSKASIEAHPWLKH

[8] = test system: Lys27-specific EZH2; details: cited from earlier work
[9] = target: T6, DIM5 (Neurospora crassa, UniProt Q8X225); details: cited from earlier work
T6 sequence (Q8X225 1-331): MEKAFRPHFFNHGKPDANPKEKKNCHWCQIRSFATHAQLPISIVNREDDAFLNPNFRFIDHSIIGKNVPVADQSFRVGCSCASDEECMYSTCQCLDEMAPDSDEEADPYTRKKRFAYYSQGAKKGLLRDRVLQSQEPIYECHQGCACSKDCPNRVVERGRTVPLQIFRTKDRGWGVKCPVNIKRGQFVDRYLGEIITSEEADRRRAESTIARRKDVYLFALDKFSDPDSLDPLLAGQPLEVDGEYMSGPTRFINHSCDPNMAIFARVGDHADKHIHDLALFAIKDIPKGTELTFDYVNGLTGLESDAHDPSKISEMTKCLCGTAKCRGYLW

[10] = test system: G9a; details: cited from earlier work
[11] = target: T7, Lys4-specific SET7/9 (Homo sapiens, UniProt Q8WTS6); details: cited from earlier work
T7 sequence (Q8WTS6 1-366): T2 sequence (Q8WTS6 1-366)

[12] = target: T8, class III isoenzyme SIRT1 (Homo sapiens, UniProt Q96EB6); details: cited from earlier work
T8 sequence (Q96EB6 1-747): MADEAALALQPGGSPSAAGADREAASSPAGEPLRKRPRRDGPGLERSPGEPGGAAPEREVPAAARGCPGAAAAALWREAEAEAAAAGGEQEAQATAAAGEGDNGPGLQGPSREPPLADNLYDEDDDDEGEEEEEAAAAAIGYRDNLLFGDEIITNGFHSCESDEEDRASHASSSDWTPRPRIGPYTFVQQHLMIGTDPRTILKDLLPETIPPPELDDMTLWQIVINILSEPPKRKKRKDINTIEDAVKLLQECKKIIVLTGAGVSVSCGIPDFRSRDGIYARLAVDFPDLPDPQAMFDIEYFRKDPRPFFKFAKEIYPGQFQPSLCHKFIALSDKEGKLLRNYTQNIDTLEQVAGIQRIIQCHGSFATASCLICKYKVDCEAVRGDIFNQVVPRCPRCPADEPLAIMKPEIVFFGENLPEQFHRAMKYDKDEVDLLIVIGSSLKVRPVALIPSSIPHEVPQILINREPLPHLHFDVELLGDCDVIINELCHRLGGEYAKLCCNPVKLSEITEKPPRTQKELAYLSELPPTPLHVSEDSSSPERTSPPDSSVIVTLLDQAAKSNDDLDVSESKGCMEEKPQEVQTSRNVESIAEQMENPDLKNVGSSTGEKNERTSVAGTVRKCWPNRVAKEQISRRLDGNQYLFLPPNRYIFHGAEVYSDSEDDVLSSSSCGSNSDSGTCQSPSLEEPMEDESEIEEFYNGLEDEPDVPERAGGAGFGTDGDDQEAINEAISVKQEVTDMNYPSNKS

Sequence of PRMT3 (O60678 whole entry, species assumed): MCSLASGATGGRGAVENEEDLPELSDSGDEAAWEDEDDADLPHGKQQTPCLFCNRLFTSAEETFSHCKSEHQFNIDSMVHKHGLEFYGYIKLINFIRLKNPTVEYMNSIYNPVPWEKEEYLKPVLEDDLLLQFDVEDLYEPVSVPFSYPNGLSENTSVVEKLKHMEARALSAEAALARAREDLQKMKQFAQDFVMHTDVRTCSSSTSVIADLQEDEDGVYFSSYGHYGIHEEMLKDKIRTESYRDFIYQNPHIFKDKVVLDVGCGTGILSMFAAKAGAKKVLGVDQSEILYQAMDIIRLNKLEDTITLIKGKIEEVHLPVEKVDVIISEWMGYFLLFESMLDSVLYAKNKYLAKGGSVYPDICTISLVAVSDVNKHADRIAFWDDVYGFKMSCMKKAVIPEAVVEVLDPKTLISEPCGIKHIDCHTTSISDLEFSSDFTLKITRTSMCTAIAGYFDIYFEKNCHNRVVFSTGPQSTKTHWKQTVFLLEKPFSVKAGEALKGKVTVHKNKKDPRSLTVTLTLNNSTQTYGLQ

## COc1cc2c(NC3CCN(C)CC3)nc(N3CCCN(C)CC3)nc2cc1OCCOCCN(C)C [UNC0321]
[1]
  fold more potent than BIX01294: ~250 fold
[2]
  IC50: > 40 µM
[3]
  IC50: > 40 µM
[4]
  IC50: > 40 µM
[5]; G9a over JMJD2E
  selectivity: well as JMJD2E (>1000-fold
[5]; JMJD2E, inactive
  IC50: > 40 µM

## COc1ccc(C(=O)Oc2ccc(CCn3c(NC(=O)c4ccc(C(F)(F)F)cc4)nc4cc(C(=O)O)ccc43)cc2)cc1 [BIX-01338]
[6]
  effective conc.: G9a/GLP effective conc. = 15 μM

## Chaetocin
[7]
  IC50: > 90 µM
[8]
  IC50: > 90 µM
[9]
  IC50: 3 µM
[10]
  IC50: 2.5 µM
[11]
  IC50: > 90 µM

## CCCCc1nc2cc(/C=C/C(=O)NO)ccc2n1CCN(CC)CC [SB939 (Pracinostat)]
[12]
  activity against the class III isoenzyme SIRT1: no activity
